# Results: ChEMBL document CHEMBL5096151, “Phytocannabinoid Pharmacology: Medicinal Properties of Cannabis sativa Constituents Aside from the "Big Two"” (J Nat Prod, 2021)
# How the values were obtained:
# [1] = target: T1, Transient receptor potential cation channel subfamily V member 3 (Homo sapiens, UniProt Q8NET8); assay: Agonist activity at ionomycin-stimulated TRPV3 (unknown origin) activation
# T1 sequence (Q8NET8 whole entry): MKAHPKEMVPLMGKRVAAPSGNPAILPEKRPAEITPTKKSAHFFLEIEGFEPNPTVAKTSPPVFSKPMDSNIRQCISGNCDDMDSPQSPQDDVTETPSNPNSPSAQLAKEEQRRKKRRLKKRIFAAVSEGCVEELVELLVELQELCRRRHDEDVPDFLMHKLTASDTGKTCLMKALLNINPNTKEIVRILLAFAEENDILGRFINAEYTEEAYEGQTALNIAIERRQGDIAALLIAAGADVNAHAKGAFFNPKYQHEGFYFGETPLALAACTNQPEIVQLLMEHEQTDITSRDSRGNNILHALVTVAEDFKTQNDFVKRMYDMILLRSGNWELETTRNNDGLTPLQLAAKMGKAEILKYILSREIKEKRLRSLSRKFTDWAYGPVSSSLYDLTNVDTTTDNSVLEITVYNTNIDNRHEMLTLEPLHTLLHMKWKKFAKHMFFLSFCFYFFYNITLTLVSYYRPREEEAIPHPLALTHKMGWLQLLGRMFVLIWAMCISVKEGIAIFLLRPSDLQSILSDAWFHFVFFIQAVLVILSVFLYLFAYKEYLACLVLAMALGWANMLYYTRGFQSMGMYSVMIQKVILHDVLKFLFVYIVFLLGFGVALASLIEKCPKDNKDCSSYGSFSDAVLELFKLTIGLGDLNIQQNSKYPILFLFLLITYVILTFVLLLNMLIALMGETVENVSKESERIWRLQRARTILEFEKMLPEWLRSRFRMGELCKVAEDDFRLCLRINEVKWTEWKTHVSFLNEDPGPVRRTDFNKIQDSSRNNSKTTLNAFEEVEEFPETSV
# [2] = target: T2, Transient receptor potential cation channel subfamily A member 1 (Homo sapiens, UniProt O75762); assay: Agonist activity at TRPA1 (unknown origin) activation assessed as efficacy relative to control; details: filed as agonist
# T2 sequence (O75762 whole entry): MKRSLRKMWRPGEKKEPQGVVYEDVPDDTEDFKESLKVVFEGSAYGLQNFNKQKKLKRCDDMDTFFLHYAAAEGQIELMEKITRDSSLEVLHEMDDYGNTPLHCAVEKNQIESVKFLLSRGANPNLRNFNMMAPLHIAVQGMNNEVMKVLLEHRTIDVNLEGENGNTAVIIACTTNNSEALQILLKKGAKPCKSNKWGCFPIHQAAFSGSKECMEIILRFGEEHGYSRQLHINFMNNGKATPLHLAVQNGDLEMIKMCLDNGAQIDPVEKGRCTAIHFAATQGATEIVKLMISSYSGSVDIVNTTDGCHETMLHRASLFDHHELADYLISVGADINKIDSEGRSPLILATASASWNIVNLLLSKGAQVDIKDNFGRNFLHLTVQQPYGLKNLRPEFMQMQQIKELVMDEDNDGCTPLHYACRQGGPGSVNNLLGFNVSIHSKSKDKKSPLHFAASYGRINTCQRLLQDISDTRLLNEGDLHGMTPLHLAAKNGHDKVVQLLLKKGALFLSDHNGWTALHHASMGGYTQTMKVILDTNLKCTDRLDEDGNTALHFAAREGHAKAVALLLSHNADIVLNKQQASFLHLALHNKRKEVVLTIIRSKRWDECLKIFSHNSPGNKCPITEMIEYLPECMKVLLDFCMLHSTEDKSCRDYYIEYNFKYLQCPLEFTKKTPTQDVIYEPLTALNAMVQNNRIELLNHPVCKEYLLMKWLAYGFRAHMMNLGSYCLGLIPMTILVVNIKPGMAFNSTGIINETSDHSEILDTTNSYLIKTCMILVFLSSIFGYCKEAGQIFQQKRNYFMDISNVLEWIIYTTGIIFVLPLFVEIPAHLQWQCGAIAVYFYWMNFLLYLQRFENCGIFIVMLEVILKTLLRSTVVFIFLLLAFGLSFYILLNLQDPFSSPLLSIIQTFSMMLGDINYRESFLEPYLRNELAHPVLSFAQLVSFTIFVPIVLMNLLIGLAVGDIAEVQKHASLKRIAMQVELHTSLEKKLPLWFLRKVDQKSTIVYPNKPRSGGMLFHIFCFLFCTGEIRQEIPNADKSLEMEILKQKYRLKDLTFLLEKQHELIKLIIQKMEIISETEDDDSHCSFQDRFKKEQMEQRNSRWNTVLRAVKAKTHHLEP
# Cytochrome P450 2C19 [3] = target: T3, Cytochrome P450 2C19 (Homo sapiens, UniProt P33261); assay: Mixed inhibition of CYP2C19 (unknown origin) by measuring inhibition constant; assay type: ADME
# T3 sequence (P33261 whole entry): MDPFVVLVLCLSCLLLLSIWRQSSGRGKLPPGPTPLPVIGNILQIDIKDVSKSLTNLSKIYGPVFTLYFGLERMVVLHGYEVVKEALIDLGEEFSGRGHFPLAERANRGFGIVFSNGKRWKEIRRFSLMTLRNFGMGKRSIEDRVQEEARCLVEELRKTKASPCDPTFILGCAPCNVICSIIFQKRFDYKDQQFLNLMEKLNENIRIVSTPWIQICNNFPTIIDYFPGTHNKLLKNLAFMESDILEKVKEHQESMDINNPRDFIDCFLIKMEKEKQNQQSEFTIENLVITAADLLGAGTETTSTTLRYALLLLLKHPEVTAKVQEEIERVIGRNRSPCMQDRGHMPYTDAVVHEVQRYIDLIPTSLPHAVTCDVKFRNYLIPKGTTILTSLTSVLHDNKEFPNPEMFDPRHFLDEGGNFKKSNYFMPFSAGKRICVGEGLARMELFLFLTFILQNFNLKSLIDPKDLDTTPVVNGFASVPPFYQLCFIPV
# [4] = target: T4, Transient receptor potential cation channel subfamily V member 1 (Homo sapiens, UniProt Q8NER1); assay: Agonist activity at ionomycin-stimulated TRPV1 (unknown origin) activation assessed as efficacy relative to control
# T4 sequence (Q8NER1 whole entry): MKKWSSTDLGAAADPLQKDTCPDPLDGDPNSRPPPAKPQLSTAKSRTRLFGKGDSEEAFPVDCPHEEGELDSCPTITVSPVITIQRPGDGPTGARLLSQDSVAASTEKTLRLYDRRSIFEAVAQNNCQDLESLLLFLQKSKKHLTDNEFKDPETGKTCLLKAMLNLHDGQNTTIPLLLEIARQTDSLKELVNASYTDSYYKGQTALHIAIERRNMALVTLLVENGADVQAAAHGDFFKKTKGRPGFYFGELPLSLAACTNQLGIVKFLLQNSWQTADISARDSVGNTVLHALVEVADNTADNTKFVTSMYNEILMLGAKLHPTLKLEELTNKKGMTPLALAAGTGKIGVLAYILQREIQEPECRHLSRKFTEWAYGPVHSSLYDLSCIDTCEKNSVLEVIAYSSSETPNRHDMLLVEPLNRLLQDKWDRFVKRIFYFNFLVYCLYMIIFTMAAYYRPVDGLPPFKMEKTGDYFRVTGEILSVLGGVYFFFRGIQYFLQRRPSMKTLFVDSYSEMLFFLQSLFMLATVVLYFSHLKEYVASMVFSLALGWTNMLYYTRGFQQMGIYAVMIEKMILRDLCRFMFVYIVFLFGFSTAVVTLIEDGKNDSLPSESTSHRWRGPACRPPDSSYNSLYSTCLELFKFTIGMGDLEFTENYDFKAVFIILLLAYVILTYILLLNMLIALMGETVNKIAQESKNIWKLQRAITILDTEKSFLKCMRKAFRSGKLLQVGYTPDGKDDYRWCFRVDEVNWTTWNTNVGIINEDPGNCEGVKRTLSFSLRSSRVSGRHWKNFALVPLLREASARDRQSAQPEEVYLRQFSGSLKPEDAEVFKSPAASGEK
# Cytochrome P450 2B6 = target: T5, Cytochrome P450 2B6 (Homo sapiens, UniProt P20813); assay: Mixed inhibition of recombinant CYP2B6 (unknown origin) using coumarin as substrate in presence of NADPH-generating system; assay type: ADME
# T5 sequence (P20813 whole entry): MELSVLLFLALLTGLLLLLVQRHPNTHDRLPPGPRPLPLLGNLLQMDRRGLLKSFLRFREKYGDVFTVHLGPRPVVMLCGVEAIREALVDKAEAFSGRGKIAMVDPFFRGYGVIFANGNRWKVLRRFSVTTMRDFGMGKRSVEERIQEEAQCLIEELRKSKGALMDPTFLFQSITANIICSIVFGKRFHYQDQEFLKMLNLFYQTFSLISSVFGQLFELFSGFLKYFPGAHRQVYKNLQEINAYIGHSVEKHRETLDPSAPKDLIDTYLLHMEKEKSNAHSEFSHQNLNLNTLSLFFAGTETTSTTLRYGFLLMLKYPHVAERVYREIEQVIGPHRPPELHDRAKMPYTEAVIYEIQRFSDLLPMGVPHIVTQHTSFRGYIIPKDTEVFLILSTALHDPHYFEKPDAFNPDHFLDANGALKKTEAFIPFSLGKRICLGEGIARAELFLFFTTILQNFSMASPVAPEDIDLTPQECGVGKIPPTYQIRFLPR
# [5] = target: T6, G-protein coupled receptor 55 (Homo sapiens, UniProt Q9Y2T6); assay: Binding affinity to human GPR55 expressed in HEK293 cells assessed as LPI-stimulated ERK1/2 phosphorylation by measuring efficacy relative to control; assay type: cell-based
# T6 sequence (Q9Y2T6 whole entry): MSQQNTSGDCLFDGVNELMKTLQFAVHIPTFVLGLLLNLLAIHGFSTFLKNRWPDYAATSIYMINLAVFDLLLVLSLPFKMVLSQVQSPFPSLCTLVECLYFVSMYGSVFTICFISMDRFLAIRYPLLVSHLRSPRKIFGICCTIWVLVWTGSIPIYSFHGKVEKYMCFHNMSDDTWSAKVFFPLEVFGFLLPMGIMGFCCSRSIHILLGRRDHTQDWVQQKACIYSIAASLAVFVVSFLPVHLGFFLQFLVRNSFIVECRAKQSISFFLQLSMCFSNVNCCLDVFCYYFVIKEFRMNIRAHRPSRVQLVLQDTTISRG
# [6] = target: T7, Transient receptor potential cation channel subfamily V member 3 (Homo sapiens) (UniProt Q8NET8); assay: Agonist activity at ionomycin-stimulated TRPV3 (unknown origin) activation assessed as efficacy relative to control
# T7 sequence (whole entry): T1 sequence (Q8NET8 whole entry)
# [7] = target: T4, Transient receptor potential cation channel subfamily V member 1; assay: Agonist activity at ionomycin-stimulated TRPV1 (unknown origin) channel desensitization in presence of capsaicin
# [8] = target: Transient receptor potential cation channel subfamily V member 4 (Homo sapiens, UniProt Q9HBA0); assay: Agonist activity at ionomycin-stimulated TRPV4 (unknown origin) channel desensitization in presence of 4alphaPDD
# Sequence of Transient receptor potential cation channel subfamily V member 4 (Q9HBA0 whole entry): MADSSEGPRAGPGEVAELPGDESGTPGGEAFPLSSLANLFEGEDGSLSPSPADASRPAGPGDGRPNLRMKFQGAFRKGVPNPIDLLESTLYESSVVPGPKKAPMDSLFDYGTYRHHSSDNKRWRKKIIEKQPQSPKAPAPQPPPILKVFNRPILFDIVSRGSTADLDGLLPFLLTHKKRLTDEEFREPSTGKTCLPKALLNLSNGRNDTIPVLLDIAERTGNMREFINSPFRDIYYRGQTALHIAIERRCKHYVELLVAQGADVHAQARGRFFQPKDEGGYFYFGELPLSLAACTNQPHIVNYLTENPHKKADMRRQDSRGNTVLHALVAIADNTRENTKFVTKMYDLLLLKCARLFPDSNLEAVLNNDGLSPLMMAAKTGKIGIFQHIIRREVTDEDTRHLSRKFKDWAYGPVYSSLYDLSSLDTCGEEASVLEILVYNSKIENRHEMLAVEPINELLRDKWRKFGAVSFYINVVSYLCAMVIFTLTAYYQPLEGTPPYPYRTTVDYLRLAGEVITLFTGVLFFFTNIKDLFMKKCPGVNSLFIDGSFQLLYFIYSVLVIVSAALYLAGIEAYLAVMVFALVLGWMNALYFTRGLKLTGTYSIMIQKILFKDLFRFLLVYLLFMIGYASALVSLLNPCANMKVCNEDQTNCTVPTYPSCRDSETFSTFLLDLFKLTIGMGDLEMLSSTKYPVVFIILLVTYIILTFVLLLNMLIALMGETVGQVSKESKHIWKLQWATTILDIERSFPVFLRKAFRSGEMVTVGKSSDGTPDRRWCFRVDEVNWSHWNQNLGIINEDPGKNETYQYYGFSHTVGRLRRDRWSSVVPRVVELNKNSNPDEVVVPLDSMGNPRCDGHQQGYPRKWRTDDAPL
# [9] = target: T6, G-protein coupled receptor 55; assay: Binding affinity to human GPR55 expressed in HEK293 cells assessed as LPI-stimulated ERK1/2 phosphorylation; assay type: cell-based
# Cytochrome P450 2C19 [10] = target: T3, Cytochrome P450 2C19; assay: Mixed inhibition of CYP2C19 (unknown origin); assay type: ADME
# [11] = target: T2, Transient receptor potential cation channel subfamily A member 1; assay: Agonist activity at TRPA1 (unknown origin) channel desensitization in presence of isothiocyanate
# [12] = target: T8, Transient receptor potential cation channel subfamily V member 2 (Homo sapiens) (UniProt Q9Y5S1); assay: Agonist activity at ionomycin-stimulated TRPV2 (unknown origin) activation assessed as efficacy relative to control; details: filed as agonist
# T8 sequence (whole entry): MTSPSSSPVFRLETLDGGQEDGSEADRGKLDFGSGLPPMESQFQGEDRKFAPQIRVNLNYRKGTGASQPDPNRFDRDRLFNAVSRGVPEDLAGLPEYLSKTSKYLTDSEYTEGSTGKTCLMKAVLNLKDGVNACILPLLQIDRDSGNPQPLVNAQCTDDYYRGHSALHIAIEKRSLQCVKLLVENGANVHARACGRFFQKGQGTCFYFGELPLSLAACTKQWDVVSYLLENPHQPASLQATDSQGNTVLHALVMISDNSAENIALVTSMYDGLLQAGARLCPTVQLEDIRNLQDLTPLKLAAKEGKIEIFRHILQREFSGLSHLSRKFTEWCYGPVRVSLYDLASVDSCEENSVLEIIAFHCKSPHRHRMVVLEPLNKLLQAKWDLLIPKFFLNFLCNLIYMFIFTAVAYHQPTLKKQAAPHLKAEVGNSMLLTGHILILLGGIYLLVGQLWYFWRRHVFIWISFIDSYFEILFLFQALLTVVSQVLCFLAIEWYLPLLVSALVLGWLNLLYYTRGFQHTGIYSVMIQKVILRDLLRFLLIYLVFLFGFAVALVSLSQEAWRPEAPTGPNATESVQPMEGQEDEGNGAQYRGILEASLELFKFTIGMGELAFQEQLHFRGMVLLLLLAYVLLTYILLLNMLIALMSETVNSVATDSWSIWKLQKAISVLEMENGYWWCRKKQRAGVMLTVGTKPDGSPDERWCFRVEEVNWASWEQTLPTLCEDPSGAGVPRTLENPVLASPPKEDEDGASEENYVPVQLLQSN
smiles,measurement,setting,value
C=C(C)[C@@H]1CCC(C)=C[C@H]1c1c(O)cc(CCC)cc1O [CANNABIDIVARIN],EC50,[1],1700 nM
same,Efficacy,[2],105%
same,Ki,Cytochrome P450 2C19 [3],1400 nM
same,Efficacy,[4],21%
same,IC50,Cytochrome P450 2B6,7.4 µM
same,Efficacy,[5],49%
same,Efficacy,[6],16%
same,IC50,[7],10 µM
same,IC50,[8],2900 nM
same,EC50,[9],400 nM
same,IC50,Cytochrome P450 2C19 [10],3.7 µM
same,IC50,[11],1300 nM
same,Efficacy,[12],50%
